Measurements reported in ChEMBL document CHEMBL1124898, “Novel agents effective against solid tumors: the diarylsulfonylureas. Synthesis, activities, and analysis of quantitative structure-activity relationships” (J Med Chem, 1990).
Values after ≈ are worked out from the molar mass of the structure shown.

Experiments:
CCRF-CEM = assay: Concentration required to inhibit growth of CCRF-CEM cells in culture for 72 hr to 50% of control growth; assay type: functional, cell-based; settings: Homo sapiens
[1] = Antitumor activity in vivo against the 6C3HED lymphosarcoma, dosed for 8 days at 300 mg/kg; settings: Mus musculus, 192 h

Row | IC50 (CCRF-CEM) | SMILES | inhibition in vivo at 300 mg/kg [1]
1 | > 20 µg/mL | Cc1ccc(S(=O)(=O)NC(=O)Nc2ncccn2)cc1 | 0%
2 | 15.7 µg/mL (≈ 47.5 µM) | Cc1ccc(S(=O)(=O)NC(=O)Nc2ccc3c(c2)CCC3)cc1 | 5%
3 | > 20 µg/mL | COc1cc(Cl)c(Cl)cc1NC(=O)NS(=O)(=O)c1ccc(C)cc1 | 3%
4 | 8.7 µg/mL (≈ 24.7 µM) | CC(C)c1ccc(S(=O)(=O)NC(=O)Nc2ccc(Cl)cc2)cc1 | 65%
5 | 15.2 µg/mL (≈ 42.1 µM) | O=C(Nc1ccc(Cl)cc1)NS(=O)(=O)c1cccc2ccccc12 | 29%
6 | 8 µg/mL (≈ 23.5 µM) | COc1cccc(S(=O)(=O)NC(=O)Nc2ccc(Cl)cc2)c1 | 100%
7 | 12.1 µg/mL (≈ 34 µM) | O=C(Nc1ccc(Cl)cc1)NS(=O)(=O)c1ccc([N+](=O)[O-])cc1 | 70%
8 | > 20 µg/mL | COc1ccc(NC(=O)NS(=O)(=O)c2ccc(C)cc2)cc1 | 6%
9 | > 20 µg/mL | Cc1ccc(S(=O)(=O)NC(=O)Nc2c(F)cc(F)cc2F)cc1 | 27%
10 | > 20 µg/mL | Cc1ccc(S(=O)(=O)NC(=O)Nc2ccc3c(c2)OCO3)cc1 | 54%
11 | 13.9 µg/mL (≈ 42.7 µM) | Nc1ccc(S(=O)(=O)NC(=O)Nc2ccc(Cl)cc2)cc1 | 43%
12 | 13 µg/mL (≈ 36.6 µM) | CCOc1ccc(S(=O)(=O)NC(=O)Nc2ccc(Cl)cc2)cc1 | 100%
13 | > 20 µg/mL | O=C(Nc1ccc2c(c1)OCO2)NS(=O)(=O)c1ccc(Cl)cc1 | 28%
14 | > 20 µg/mL | O=C(NCCc1ccccc1)NS(=O)(=O)c1ccc2c(c1)CCC2 | 0%
15 | > 20 µg/mL | Cc1ccc(S(=O)(=O)NC(=O)Nc2c(F)c(F)cc(F)c2F)cc1 | 0%
16 | > 20 µg/mL | Cc1ccc(S(=O)(=O)NC(=O)NCc2ccccc2)cc1 | 0%
17 | > 20 µg/mL | Cc1ccc(S(=O)(=O)NC(=O)NCc2ccc(Cl)cc2)cc1 | 14%
18 | > 20 µg/mL | Cc1ccc(S(=O)(=O)NC(=O)Nc2ccc(N(C)C)cc2)cc1 | 51%
19 | > 20 µg/mL | Cc1ccc(S(=O)(=O)NC(=O)Nc2cccc(Cl)c2Cl)cc1 | 37%
20 | 17.6 µg/mL (≈ 44.5 µM) | O=C(Nc1ccc(Br)cc1)NS(=O)(=O)c1ccc2c(c1)CCC2 | 92%
21 | 10.4 µg/mL (≈ 30.7 µM) | CCc1cccc(S(=O)(=O)NC(=O)Nc2ccc(Cl)cc2)c1 | 95%

Row | IC50 (CCRF-CEM) | SMILES | inhibition in vivo at 300 mg/kg [1]
22 | > 20 µg/mL | Cc1ccc(S(=O)(=O)NC(=O)Nc2cc(F)cc(F)c2)cc1 | 52%
23 | > 20 µg/mL | CCc1cccc(NC(=O)NS(=O)(=O)c2ccc(C)cc2)c1 | 0%
24 | > 20 µg/mL | COc1ccc(S(=O)(=O)NC(=O)Nc2ccc(Cl)cc2)cc1OC | 43%
25 | 9 µg/mL (≈ 21.3 µM) | CCCCCCCCc1ccc(S(=O)(=O)NC(=O)Nc2ccc(Cl)cc2)cc1 | 9%
26 | > 20 µg/mL | CC(=O)Nc1ccc(S(=O)(=O)NC(=O)Nc2ccc(C(F)(F)F)cc2)cc1 | 22%
27 | 14.5 µg/mL (≈ 44.1 µM) | O=C(Nc1ccc(F)cc1)NS(=O)(=O)c1ccc(Cl)cc1 | 74%
28 | > 20 µg/mL | Cc1ccc(S(=O)(=O)NC(=O)Nc2ccncc2)cc1 | 24%
29 | 9.1 µg/mL (≈ 25.7 µM) | O=C(Nc1ccc(Cl)cc1)NS(=O)(=O)c1ccc2c(c1)OCO2 | 100%
30 | 13.8 µg/mL (≈ 39.1 µM) | CCCc1ccc(S(=O)(=O)NC(=O)Nc2ccc(Cl)cc2)cc1 | 79%
31 | > 20 µg/mL | O=C(Nc1ccc(Cl)cc1)NS(=O)(=O)c1ccc(CO)cc1 | 15%
32 | > 20 µg/mL | CCCOc1cccc(NC(=O)NS(=O)(=O)c2ccc(C)cc2)c1 | 0%
33 | > 20 µg/mL | Cc1ccc(S(=O)(=O)NC(=O)Nc2ccc(-c3ccccc3)cc2)cc1 | 0%
34 | > 20 µg/mL | Cc1ccc(S(=O)(=O)NC(=O)Nc2ccccc2C)cc1 | 32%
35 | > 20 µg/mL | Cc1ccc(S(=O)(=O)NC(=O)Nc2cccc(Cl)c2)cc1 | 13%
36 | > 20 µg/mL | Cc1ccc(S(=O)(=O)NC(=O)Oc2ccc(Cl)cc2)cc1 | 43%
37 | > 20 µg/mL | Cc1ccc(S(=O)(=O)NC(=O)Nc2ccc(OCc3ccccc3)cc2)cc1 | 0%
38 | 17.4 µg/mL (≈ 47.2 µM) | COC(=O)c1ccc(S(=O)(=O)NC(=O)Nc2ccc(Cl)cc2)cc1 | 49%
39 |  | Cc1ccc(S(=O)(=O)NC(=O)Nc2ccc(S(N)(=O)=O)cc2)cc1 | 27%
40 | > 20 µg/mL | Cc1ccc(S(=O)(=O)NC(=O)Nc2cc(C)cc(C)c2)cc1 | 9%
41 |  | Cc1ccc(S(=O)(=O)NC(=O)Nc2cccc(C)c2C)cc1 | 8%
42 | > 20 µg/mL | Cc1ccc(S(=O)(=O)NC(=O)Nc2nc[nH]n2)cc1 | 0%

Row | IC50 (CCRF-CEM) | SMILES | inhibition in vivo at 300 mg/kg [1]
43 | > 20 µg/mL | Cc1ccc(S(=O)(=O)NC(=O)NC2CCC(C)CC2)cc1 (configuration not stated) | 2%
44 | > 20 µg/mL | Cc1ccc(S(=O)(=O)NC(=O)NCCc2ccccc2)cc1 | 24%
45 | > 20 µg/mL | Cc1ccc(S(=O)(=O)NC(=O)Nc2ccc(S(C)(=O)=O)cc2)cc1 | 7%
46 | 9.1 µg/mL (≈ 23.6 µM) | O=C(Nc1ccc(Cl)c(Cl)c1)NS(=O)(=O)c1ccc2c(c1)CCC2 | 97%
47 |  | Cc1ccc(S(=O)(=O)NC(=O)Nc2ccc(OC(F)F)cc2)cc1 | 15%
48 | > 20 µg/mL | Cc1ccc(S(=O)(=O)NC(=O)Nc2cccc(C)c2)cc1 | 0%
49 | 13.6 µg/mL (≈ 40.1 µM) | Cc1ccc(S(=O)(=O)NC(=O)Nc2ccc(Cl)cc2)cc1C | 100%
50 | 13.5 µg/mL (≈ 36.6 µM) | O=C(Nc1ccc(Cl)cc1)NS(=O)(=O)c1ccc2c(c1)OCCO2 | 49%
51 | > 20 µg/mL | CSc1cccc(NC(=O)NS(=O)(=O)c2ccc(C)cc2)c1 | 20%
52 | > 20 µg/mL | Cc1ccc(S(=O)(=O)NC(=O)N(C)c2ccc(Cl)cc2)cc1 | 30%
53 | 7.3 µg/mL (≈ 19 µM) | Cc1ccc(S(=O)(=O)NC(=O)Nc2ccc(Br)c(C)c2)cc1 | 81%
54 | > 20 µg/mL | Cc1ccc(S(=O)(=O)NC(=O)NC2CCC(O)CC2)cc1 (configuration not stated) | 0%
55 | > 20 µg/mL | Cc1ccc(S(=O)(=O)NC(=O)Nc2cccnc2)cc1 | 1%
56 | 12.4 µg/mL (≈ 33.8 µM) | CCc1ccc(S(=O)(=O)NC(=O)Nc2ccc(Cl)cc2)cc1CC | 46%
57 | 18.4 µg/mL (≈ 49.2 µM) | Cc1ccc(S(=O)(=O)NC(=O)Nc2ccc(OC(F)(F)F)cc2)cc1 | 17%
58 | > 20 µg/mL | Cc1ccc(S(=O)(=O)NC(=O)Nc2ccc3[nH]ncc3c2)cc1 | 0%
59 | > 20 µg/mL | Cc1ccc(S(=O)(=O)NC(=O)Nc2ccc3c(c2)C(=O)CC3)cc1 | 0%
60 | > 20 µg/mL | Cc1ccc(S(=O)(=O)NC(=O)Nc2ccc(C#N)cc2)cc1 | 31%
61 | > 20 µg/mL | COc1ccc(NC(=O)NS(=O)(=O)c2ccc(C)cc2)cc1Cl | 0%
62 | > 20 µg/mL | Cc1ccc(S(=O)(=O)NC(=O)Nc2cc(Cl)cc(Cl)c2)cc1 | 21%
63 | 19.7 µg/mL (≈ 48.9 µM) | O=C(Nc1ccc(Cl)cc1)NS(=O)(=O)c1ccc(Oc2ccccc2)cc1 | 32%

Row | IC50 (CCRF-CEM) | SMILES | inhibition in vivo at 300 mg/kg [1]
64 | > 20 µg/mL | Cc1ccc(S(=O)(=O)N(C)C(=O)Nc2ccc(Cl)cc2)cc1 | 17%
65 | > 20 µg/mL | O=C(Nc1ccc(F)cc1)NS(=O)(=O)c1ccc2c(c1)CCC2 | 39%
66 | 13.1 µg/mL (≈ 39 µM) | N#Cc1cccc(S(=O)(=O)NC(=O)Nc2ccc(Cl)cc2)c1 | 19%
67 | > 20 µg/mL | Cc1ccc(S(=O)(=O)NC(=O)Nc2ccc(Cl)cc2C(F)(F)F)cc1 | 24%
68 | > 20 µg/mL | CCOc1cccc(NC(=O)NS(=O)(=O)c2ccc(C)cc2)c1 | 6%
69 | > 20 µg/mL | Cc1ccc(S(=O)(=O)NC(=O)Nc2ccc(O)cc2)cc1 | 10%
70 | 11.6 µg/mL (≈ 38.1 µM) | Cc1ccc(NC(=O)NS(=O)(=O)c2ccc(C)cc2)cc1 | 91%
71 | 19.7 µg/mL (≈ 56.9 µM) | CCCCc1ccc(NC(=O)NS(=O)(=O)c2ccc(C)cc2)cc1 | 8%
72 | 12 µg/mL (≈ 31.2 µM) | O=C(Nc1ccc(C(F)(F)F)cc1)NS(=O)(=O)c1ccc2c(c1)CCC2 | 71%
73 | > 20 µg/mL | Cc1ccc(S(=O)(=O)NC(=O)Nc2ccc(OCC(F)(F)F)cc2)cc1 | 30%
74 |  | Cc1ccc(S(=O)(=O)NC(=O)Nc2cc(C(C)(C)C)on2)cc1 | 5%
75 | 18.6 µg/mL (≈ 47.4 µM) | Cc1ccc(S(=O)(=O)NC(=O)Nc2ccc(Cl)c(C(F)(F)F)c2)cc1 | 18%
76 | > 20 µg/mL | Cc1ccc(S(=O)(=O)NC(=O)Nc2ccc(Cl)cn2)cc1 | 43%
77 | > 20 µg/mL | CCOC(=O)c1ccc(NC(=O)NS(=O)(=O)c2ccc(C)cc2)cc1 | 12%
78 | > 20 µg/mL | CSc1ccc(NC(=O)NS(=O)(=O)c2ccc(C)cc2)cc1 | 17%
79 | 7.3 µg/mL (≈ 21.5 µM) | Cc1ccc(S(=O)(=O)NC(=O)Nc2ccc(Cl)c(C)c2)cc1 | 85%
80 | > 20 µg/mL | Cc1ccc(S(=O)(=O)NC(=O)Nc2nc(Cl)cc(Cl)n2)cc1 | 0%
81 | > 20 µg/mL | O=C(NCCc1ccccc1)NS(=O)(=O)c1ccc2ccccc2c1 | 0%
82 | > 20 µg/mL | Cc1ccc(S(=O)(=O)NC(=O)Nc2nncs2)cc1 | 16%
83 | > 20 µg/mL | Cc1ccc(S(=O)(=O)NC(=O)Nc2cnccn2)cc1 | 0%
